Measurements published in the NIST ThermoML archive (doi:10.1021/je800110r).
± gives the expanded uncertainty stated by the source.

Details: Liquid, Vibrating tube method

CCCCCCCCCC [decane]
Details	mass density [kg/m3]
323.15 K, 32682 kPa	732.9 ± 2.1
323.15 K, 32750 kPa	733 ± 2.1
323.15 K, 32786 kPa	733 ± 2.1
323.15 K, 32870 kPa	732.9 ± 2.1
323.15 K, 33409 kPa	733.4 ± 2.1
323.15 K, 33442 kPa	733.3 ± 2.1
323.15 K, 33464 kPa	733.5 ± 2.1
323.15 K, 33482 kPa	733.3 ± 2.1
323.15 K, 33530 kPa	733.5 ± 2.1
323.15 K, 33575 kPa	733.5 ± 2.1
323.15 K, 33593 kPa	733.4 ± 2.1
323.15 K, 34001 kPa	733.8 ± 2.1
323.15 K, 34025 kPa	733.8 ± 2.1
323.15 K, 34059 kPa	733.8 ± 2.1
323.15 K, 34079 kPa	733.8 ± 2.1
323.15 K, 34114 kPa	733.9 ± 2.1
323.15 K, 34138 kPa	733.8 ± 2.1
323.15 K, 34175 kPa	734 ± 2.1
323.15 K, 34199 kPa	733.8 ± 2.1
323.15 K, 34237 kPa	733.8 ± 2.1
323.15 K, 34400 kPa	734 ± 2.1
323.15 K, 34425 kPa	734.1 ± 2.1
323.15 K, 34440 kPa	734 ± 2.1
323.15 K, 34451 kPa	734.1 ± 2.1
323.15 K, 34456 kPa	734 ± 2.1
323.15 K, 34460 kPa	734.2 ± 2.1
323.15 K, 34463 kPa	734.1 ± 2.1
323.15 K, 34464 kPa	734.1 ± 2.1
323.16 K, 356 kPa	707.2 ± 2
323.16 K, 379 kPa	707.1 ± 2
323.16 K, 400 kPa	707.2 ± 2
323.16 K, 417 kPa	707.2 ± 2
323.16 K, 438 kPa	707.2 ± 2
323.16 K, 464 kPa	707.2 ± 2
323.16 K, 488 kPa	707.3 ± 2
323.16 K, 517 kPa	707.3 ± 2
323.16 K, 541 kPa	707.3 ± 2
323.16 K, 575 kPa	707.3 ± 2
323.16 K, 612 kPa	707.4 ± 2
323.16 K, 646 kPa	707.4 ± 2
323.16 K, 728 kPa	707.6 ± 2
323.16 K, 944 kPa	707.8 ± 2
323.16 K, 1001 kPa	707.8 ± 2
323.16 K, 1024 kPa	707.7 ± 2
323.16 K, 1047 kPa	707.8 ± 2
323.16 K, 1070 kPa	707.8 ± 2
323.16 K, 1102 kPa	707.8 ± 2
323.16 K, 1211 kPa	708 ± 2
323.16 K, 1244 kPa	708 ± 2
323.16 K, 1280 kPa	708.1 ± 2
323.16 K, 1314 kPa	708 ± 2
323.16 K, 1337 kPa	708.2 ± 2
323.16 K, 1362 kPa	708.2 ± 2
323.16 K, 1381 kPa	708.2 ± 2
323.16 K, 1405 kPa	708.1 ± 2
323.16 K, 1427 kPa	708.2 ± 2
323.16 K, 1453 kPa	708.3 ± 2
323.16 K, 1479 kPa	708.2 ± 2
323.16 K, 1503 kPa	708.2 ± 2
323.16 K, 1524 kPa	708.3 ± 2
323.16 K, 1553 kPa	708.2 ± 2
323.16 K, 1582 kPa	708.2 ± 2
323.16 K, 1608 kPa	708.4 ± 2
323.16 K, 1630 kPa	708.4 ± 2
323.16 K, 1671 kPa	708.3 ± 2
323.16 K, 1694 kPa	708.4 ± 2
323.16 K, 1723 kPa	708.5 ± 2
323.16 K, 1748 kPa	708.5 ± 2
323.16 K, 1778 kPa	708.5 ± 2
323.16 K, 1812 kPa	708.4 ± 2
323.16 K, 1848 kPa	708.5 ± 2
323.16 K, 1871 kPa	708.5 ± 2
323.16 K, 1898 kPa	708.7 ± 2
323.16 K, 1945 kPa	708.7 ± 2
323.16 K, 1973 kPa	708.7 ± 2
323.16 K, 2008 kPa	708.6 ± 2
323.16 K, 2050 kPa	708.7 ± 2
323.16 K, 2081 kPa	708.7 ± 2
323.16 K, 2113 kPa	708.8 ± 2
323.16 K, 2151 kPa	708.7 ± 2
323.16 K, 2201 kPa	708.9 ± 2
323.16 K, 2247 kPa	708.9 ± 2
323.16 K, 2281 kPa	708.8 ± 2
323.16 K, 2332 kPa	708.9 ± 2
323.16 K, 2405 kPa	709.1 ± 2
323.16 K, 2718 kPa	709.4 ± 2
323.16 K, 2738 kPa	709.3 ± 2
323.16 K, 2755 kPa	709.4 ± 2
323.16 K, 2772 kPa	709.4 ± 2
323.16 K, 2789 kPa	709.5 ± 2
323.16 K, 2809 kPa	709.5 ± 2
323.16 K, 2845 kPa	709.6 ± 2
333.14 K, 21082 kPa	717.8 ± 2
333.14 K, 21129 kPa	717.8 ± 2
333.14 K, 26540 kPa	722.1 ± 2.1
333.14 K, 26569 kPa	722.1 ± 2.1
333.14 K, 26609 kPa	722 ± 2.1
333.14 K, 26648 kPa	722.2 ± 2.1
333.14 K, 26696 kPa	722.2 ± 2.1
333.14 K, 26733 kPa	722.2 ± 2.1
333.14 K, 26773 kPa	722.3 ± 2.1
333.14 K, 26813 kPa	722.3 ± 2.1
333.14 K, 26859 kPa	722.4 ± 2.1
333.14 K, 26912 kPa	722.4 ± 2.1
333.14 K, 26958 kPa	722.4 ± 2.1
333.14 K, 26993 kPa	722.4 ± 2.1
333.14 K, 27039 kPa	722.4 ± 2.1
333.14 K, 27087 kPa	722.4 ± 2.1
333.14 K, 27129 kPa	722.6 ± 2.1
333.14 K, 27171 kPa	722.5 ± 2.1
333.14 K, 27219 kPa	722.5 ± 2.1
333.14 K, 30020 kPa	724.6 ± 2.1
333.14 K, 30058 kPa	724.6 ± 2.1
333.14 K, 30100 kPa	724.7 ± 2.1
333.14 K, 30134 kPa	724.7 ± 2.1
333.14 K, 30168 kPa	724.7 ± 2.1
333.14 K, 30197 kPa	724.7 ± 2.1
333.14 K, 30227 kPa	724.8 ± 2.1
333.14 K, 30265 kPa	724.9 ± 2.1
333.14 K, 30291 kPa	724.8 ± 2.1
333.14 K, 30312 kPa	724.8 ± 2.1
333.14 K, 30350 kPa	724.9 ± 2.1
333.14 K, 30376 kPa	724.8 ± 2.1
333.14 K, 30402 kPa	724.9 ± 2.1
333.14 K, 30432 kPa	724.9 ± 2.1
333.14 K, 30458 kPa	724.9 ± 2.1
333.14 K, 30480 kPa	725 ± 2.1
333.14 K, 30502 kPa	725 ± 2.1
333.14 K, 30528 kPa	725 ± 2.1
333.14 K, 30566 kPa	725 ± 2.1
333.14 K, 30592 kPa	724.9 ± 2.1
333.14 K, 30623 kPa	725 ± 2.1
333.14 K, 30654 kPa	725.2 ± 2.1
333.14 K, 30689 kPa	725.2 ± 2.1
333.14 K, 31374 kPa	725.5 ± 2.1
333.14 K, 31402 kPa	725.6 ± 2.1
333.14 K, 31439 kPa	725.6 ± 2.1
